Values joined by “and” are separate entries in the source; they are usually repeats but may differ in a detail not shown here. Identical values can stand only once. Inconclusive results and toxic doses are left out. How the source made its calls: active means survival T/C of 150% or more; inactive means T/C below 125% in these data.
Test system: P388 leukemia ip, CD2F1 mice, survival T/C
Test: NCI In Vivo Anticancer Drug Screen. Data for tumor model P388 Leukemia (intraperitoneal) in CD2F1 (CDF1) mice
Settings: endpoint: median survival time, higher = longer survival
Method in brief: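 Mice carrying the transplanted tumor received test compound or vehicle. Survival was recorded in each group, and the value is the treated-group measurement divided by that of the vehicle-treated control group.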

[1] = dose: 60.0 mg/kg/injection, schedule: Q01DX005 (ip), vehicle: saline with Tween-80
[2] = dose: 120.0 mg/kg/injection, schedule: Q01DX005 (ip), vehicle: saline with Tween-80
[3] = dose: 240.0 mg/kg/injection, schedule: Q01DX005 (ip), vehicle: saline with Tween-80
[4] = dose: 100.0 mg/kg/injection, schedule: Q04DX003 (ip), vehicle: saline with Tween-80
[5] = dose: 200.0 mg/kg/injection, schedule: Q04DX003 (ip), vehicle: saline with Tween-80
[6] = dose: 50.0 mg/kg/injection, schedule: Q01DX005 (ip), vehicle: saline with Tween-80
[7] = dose: 100.0 mg/kg/injection, schedule: Q01DX005 (ip), vehicle: saline with Tween-80
[8] = dose: 200.0 mg/kg/injection, schedule: Q01DX005 (ip), vehicle: saline with Tween-80
[9] = dose: 6.25 mg/kg/injection, schedule: Q01DX005 (ip), vehicle: saline with Tween-80
[10] = dose: 25.0 mg/kg/injection, schedule: Q01DX009 (ip), vehicle: saline with Tween-80
[11] = dose: 50.0 mg/kg/injection, schedule: Q01DX009 (ip), vehicle: saline with Tween-80
[12] = dose: 100.0 mg/kg/injection, schedule: Q01DX009 (ip), vehicle: saline with Tween-80
[13] = dose: 200.0 mg/kg/injection, schedule: Q01DX009 (ip), vehicle: saline with Tween-80

Measured: T/C

Nc1nccc(CC(O)(c2ccccc2)c2ccccc2)n1
inactive: dose: 15.0 mg/kg/injection, schedule: Q01DX005 (ip), vehicle: saline with Tween-80 102 % of control | dose: 30.0 mg/kg/injection, schedule: Q01DX005 (ip), vehicle: saline with Tween-80 102 % of control | [1] 99 % of control and 100 % of control | [2] 95 % of control | [3] 87 % of control

CC(C)CSC(C)C
inactive: dose: 50.0 mg/kg/injection, schedule: Q04DX003 (ip), vehicle: saline with Tween-80 100 % of control | [4] 104 % of control | [5] 100 % of control

CCCCCCCN(CCCCCCC)CC(O)c1cc2ccccc2c2cc(Br)ccc12 (stereo unspecified)
inactive: [6] 109 % of control | [7] 104 % of control | [8] 99 % of control

CS(=O)(=O)OCCN(CCOS(C)(=O)=O)c1cccc(Cl)c1
active: dose: 10.0 mg/kg/injection, schedule: Q01DX009 (ip), vehicle: other 186 % of control
inactive: dose: 1.25 mg/kg/injection, schedule: Q01DX009 (ip), vehicle: other 95 % of control | dose: 2.5 mg/kg/injection, schedule: Q01DX009 (ip), vehicle: other 122 % of control

C=C(CN(C)C)C(=O)c1ccc(OC2OC(COC(C)=O)C(OC(C)=O)C(OC(C)=O)C2OC(C)=O)cc1 (stereo unspecified)
inactive: [9] 106 % of control | dose: 12.5 mg/kg/injection, schedule: Q01DX005 (ip), vehicle: saline with Tween-80 109 % of control

CC(C)N1CC(=O)N2CSCC2C1=O (stereo unspecified)
inactive: dose: 60.0 mg/kg/injection, schedule: Q01DX005 (ip), vehicle: saline 105 % of control | dose: 120.0 mg/kg/injection, schedule: Q01DX005 (ip), vehicle: saline 105 % of control | dose: 240.0 mg/kg/injection, schedule: Q01DX005 (ip), vehicle: saline 105 % of control

COc1ccc(OC)c(NC(=O)Oc2ccc(C#N)cc2)c1
inactive: [1] 119 % of control | [2] 107 % of control | [3] 111 % of control

CC1CN1P(=O)(N1CCCC1)N1CC1C (stereo unspecified)
active: dose: 25.0 mg/kg/injection, schedule: Q01DX009 (ip), vehicle: saline 150 % of control | dose: 66.0 mg/kg/injection, schedule: Q04DX003 (ip), vehicle: saline 166 % of control | dose: 100.0 mg/kg/injection, schedule: Q04DX003 (ip), vehicle: saline 175 % of control
inactive: dose: 4.4 mg/kg/injection, schedule: Q01DX009 (ip), vehicle: saline 109 % of control | dose: 6.6 mg/kg/injection, schedule: Q01DX009 (ip), vehicle: saline 120 % of control | dose: 12.5 mg/kg/injection, schedule: Q04DX003 (ip), vehicle: saline 100 % of control | dose: 25.0 mg/kg/injection, schedule: Q04DX003 (ip), vehicle: saline 108 % of control | dose: 100.0 mg/kg/injection, schedule: Q01DX009 (ip), vehicle: saline 86 % of control

CCCCCCCCCCCCCCCC(=O)N(CCCN(CC)CC)C(C)CCCN(CC)CC (stereo unspecified)
inactive: dose: 0.38 mg/kg/injection, schedule: Q01DX009 (ip), vehicle: water 96 % of control | dose: 0.75 mg/kg/injection, schedule: Q01DX009 (ip), vehicle: water 98 % of control | dose: 1.5 mg/kg/injection, schedule: Q01DX009 (ip), vehicle: water 98 % of control | dose: 3.0 mg/kg/injection, schedule: Q01DX009 (ip), vehicle: water 95 % of control | dose: 6.0 mg/kg/injection, schedule: Q01DX009 (ip), vehicle: water 92 % of control

O=C1CC2COc3ccc(O)cc3C2=NN1c1ccccc1 (stereo unspecified)
inactive: [6] 94 % of control | [7] 98 % of control | [8] 94 % of control

O=C(/C=C/c1ccccc1)n1nnc2cc(Cl)c(Cl)cc21
inactive: dose: 12.5 mg/kg/injection, schedule: Q01DX009 (ip), vehicle: saline with Tween-80 92 % of control | [10] 115 % of control | [11] 92 % of control | [12] 99 % of control | [13] 96 % of control

COC(=O)c1ccc(SCCC(=O)CSc2ccc(C(=O)OC)cc2)cc1
inactive: dose: 50.0 mg/kg/injection, schedule: Q01DX009 (ip), vehicle: Klucel (hydroxypropylcellulose) (HPC) 98 % of control | dose: 100.0 mg/kg/injection, schedule: Q01DX009 (ip), vehicle: Klucel (hydroxypropylcellulose) (HPC) 94 % of control | dose: 200.0 mg/kg/injection, schedule: Q01DX009 (ip), vehicle: Klucel (hydroxypropylcellulose) (HPC) 94 % of control

Cc1csc(Nc2c3ccccc3nc3ccccc23)n1
inactive: dose: 12.5 mg/kg/injection, schedule: Q04DX002 (ip), vehicle: distilled water + Tween-80 99 % of control | dose: 25.0 mg/kg/injection, schedule: Q04DX002 (ip), vehicle: distilled water + Tween-80 98 % of control | dose: 50.0 mg/kg/injection, schedule: Q04DX002 (ip), vehicle: distilled water + Tween-80 91 % of control | dose: 100.0 mg/kg/injection, schedule: Q04DX002 (ip), vehicle: distilled water + Tween-80 91 % of control | dose: 200.0 mg/kg/injection, schedule: Q04DX002 (ip), vehicle: distilled water + Tween-80 87 % of control | dose: 400.0 mg/kg/injection, schedule: Q04DX002 (ip), vehicle: distilled water + Tween-80 100 % of control

O=C1C2C3C=CC(C2C(=O)N1CN1CCSCC1)C1C2C(=O)N(CN4CCSCC4)C(=O)C2C31 (stereo unspecified)
inactive: [10] 99 % of control | [11] 116 % of control and 121 % of control
active: [12] 165 % of control | [13] 166 % of control and 194 % of control

CCOc1cc(C(C)c2ccc(OC)cc2)c(OCC)cc1OC (stereo unspecified)
inactive: [1] 106 % of control | [2] 100 % of control | [3] 103 % of control

COC1=C(C)C(=O)c2c(c(COC(N)=O)c3n2CC2C3N2C)C1=O (stereo unspecified)
inactive: dose: 6.25 mg/kg/injection, schedule: Q04DX003 (ip), vehicle: saline with Tween-80 100 % of control | dose: 12.5 mg/kg/injection, schedule: Q04DX003 (ip), vehicle: saline with Tween-80 90 % of control

C=C1C(C)C2C(Cc3ccccc3)NC(=O)C23C(OC(C)=O)C=CC(C)(O)C(=O)C(C)C/C=C/C3C1O (stereo unspecified)
inactive: dose: 0.62 mg/kg/injection, schedule: Q01DX009 (ip), vehicle: Klucel (hydroxypropylcellulose) (HPC) 107 % of control | dose: 0.63 mg/kg/injection, schedule: Q01DX009 (ip), vehicle: Klucel (hydroxypropylcellulose) (HPC) 107 % of control | dose: 1.25 mg/kg/injection, schedule: Q01DX009 (ip), vehicle: Klucel (hydroxypropylcellulose) (HPC) 107 % of control and 97 % of control | dose: 2.5 mg/kg/injection, schedule: Q01DX009 (ip), vehicle: Klucel (hydroxypropylcellulose) (HPC) 107 % of control and 120 % of control | dose: 5.0 mg/kg/injection, schedule: Q01DX009 (ip), vehicle: Klucel (hydroxypropylcellulose) (HPC) 100 % of control and 103 % of control

CC(/C=C/c1ccc2c(c1)OCO2)=N\NC(N)=S
inactive: dose: 3.13 mg/kg/injection, schedule: Q01DX005 (ip), vehicle: saline with Tween-80 104 % of control | [9] 112 % of control

CC1COCCOC(=O)COCC(=O)OCCOCC(C)O1 (stereo unspecified)
inactive: dose: 100.0 mg/kg/injection, schedule: Q04DX003 (ip), vehicle: Klucel (hydroxypropylcellulose) (HPC) 107 % of control | dose: 200.0 mg/kg/injection, schedule: Q04DX003 (ip), vehicle: Klucel (hydroxypropylcellulose) (HPC) 103 % of control | dose: 400.0 mg/kg/injection, schedule: Q04DX003 (ip), vehicle: Klucel (hydroxypropylcellulose) (HPC) 93 % of control

O=C(O)c1ccccc1N=N/C(=N\Nc1ccccc1C(=O)O)c1cccc2cccnc12
inactive: [4] 103 % of control | [5] 106 % of control | dose: 400.0 mg/kg/injection, schedule: Q04DX003 (ip), vehicle: saline with Tween-80 97 % of control

CC1(C)Cc2c(nc3ccccc3c2C(N)=O)-c2ccccc21
inactive: dose: 50.0 mg/kg/injection, schedule: Q01DX005 (ip), vehicle: Klucel (hydroxypropylcellulose) (HPC) 88 % of control | dose: 100.0 mg/kg/injection, schedule: Q01DX005 (ip), vehicle: Klucel (hydroxypropylcellulose) (HPC) 88 % of control | dose: 200.0 mg/kg/injection, schedule: Q01DX005 (ip), vehicle: Klucel (hydroxypropylcellulose) (HPC) 88 % of control

CN(C)c1ccc2c(Cl)cc(=O)[nH]c2c1
inactive: [1] 97 % of control | [2] 97 % of control | [3] 97 % of control

COc1ccc(NC(=O)CCC(=O)CC(=O)c2ccncc2)cc1
inactive: [1] 101 % of control | [2] 103 % of control | [3] 93 % of control

CC(/C=C/C1(C)C(C)CCC(=O)C1C)=C\Cc1c(O)c(Cl)c(C)c(C=O)c1O (stereo unspecified)
inactive: dose: 3.12 mg/kg/injection, schedule: Q01DX009 (ip), vehicle: Klucel (hydroxypropylcellulose) (HPC) 101 % of control and 103 % of control | dose: 6.25 mg/kg/injection, schedule: Q01DX009 (ip), vehicle: Klucel (hydroxypropylcellulose) (HPC) 103 % of control and 106 % of control | dose: 12.5 mg/kg/injection, schedule: Q01DX009 (ip), vehicle: Klucel (hydroxypropylcellulose) (HPC) 106 % of control and 113 % of control
